Measured values from publication PMC7288058, “Modulating the Properties of Fe(III) Macrocyclic MRI Contrast Agents by Appending Sulfonate or Hydroxyl Groups” (Molecules, 2020).
Where “and” joins values, the source holds several entries; their conditions need not be identical. Identical values can stand only once.

Key:
[1] = T1/T2 relaxivity measurements (4.7 T MRI scanner, 9.4 T NMR); conditions: pH 7.4, 37 °C; for r1 4.7 T / r2 4.7 T / r1 9.4 T: buffer
Procedure: The r1 and r2 relaxivity of the three complexes in buffer and HSA on a 4.7-T MRI scanner and 9.4-T NMR spectrometer are shown in Table 2. In buffer, the r1 relaxivity values of Fe(L1)(OH2) and Fe(L3)(OH2) are similar at 2.0 mM^−1∙s^−1 and 2.2. mM^−1∙s^−1, respectively, at 4.7 T. Both complexes have higher relaxivity than Fe(EDTA) (1.4 mM^−1∙s^−1 at 4.7 T) which has a single exchangeable inner-sphere water molecule. The r1 relaxivity value of the […] complex in buffer is two-fold less (1.0 mM^−1∙s^−1) than that of Fe(L1)(OH2) or […] at 4.7 T. In HSA-containing solutions, the r1 relaxivity values of Fe(L1)(OH2), Fe(L2) and Fe(L3)(OH2) change slightly, consistent with weak binding to this blood protein. […] As expected, increasing the field strength from 4.7 T to 9.4 T caused a decrease in the r1 relaxivity value of Gd(DTPA) to 2.5 mM^−1∙s^−1 from 3.1 mM^−1∙s^−1 [19]. […] This peculiar feature of Fe(III) complexes was predicted from simulation of NMRD profiles.
Relaxivity of the complexes was determined at 4.7 T (small animal MRI) and 9.4 T (400 MHz NMR). Both T1 and T2 experiments were performed at 37 °C for the concentration range of 50.0 µM to 0.400 mM Fe(III) complex. The solutions contained 0.100 M NaCl and HEPES buffer (pH 7.4, 20 mM). An inversion recovery True FISP acquisition was used to measure T1 relaxation rate constants. T2 relaxation rates were measured by using multi-echo, Carr–Purcell–Meiboom–Gill spin-echo sequence with a fixed TR of 3000 ms and TE times ranging from 20–1200 ms. The T1 and T2 relaxivity values were calculated by using linear regression fitting of 1/T1 (s^−1) and 1/T2 (s^−1) versus concentration (mM) in Microsoft Excel.

[2] = molecular target: T1, human serum albumin (HSA) (Homo sapiens, UniProt P02768); test: Binding to human serum albumin by ultrafiltration / ICP-MS; type: in vitro ADME; conditions: 0.4 mM complex, HSA 4.5% (w/v) (0.7 mM), 20 mM HEPES pH 7.4, 100 mM NaCl, 37 °C, 20 min
T1 construct: Albumin from human serum (fatty acid free) was purchased from Sigma-Aldrich; purchased Sigma-Aldrich; host or cells: purified from human serum
Procedure: Binding of the Fe(III) complexes to human serum albumin (HSA) was studied by using ultrafiltration across a MW 5000 cutoff membrane. The solutions containing HEPES buffer (pH 7.4) and salt NaCl were incubated at 37 °C for 20 min. Solutions contained 0.4 mM Fe(III) complex and 4.5 % (w/v) HSA (0.7 mM). The binding percentages were measured by using ICP-MS to analyze the Fe concentration in the unbound complex solutions after HSA incubation (Table 1). The protein binding for Fe(L3)(OH2) was higher (75%) than for Fe(L1)(OH2) (37%) or Fe(L2) (11%).
The molecular weight of 66,435 Da was used to determine the molar concentrations of HSA. Fe(III) complex (0.400 mM) solutions were incubated with 4.5% (w/v) HSA in 0.100 M NaCl and 20.0 mM HEPES buffer (pH 7.4). All solutions were incubated at 37 °C for 20 min [42]. Aliquots (0.300 mL) were placed in ultra-centrifugal filter units with a 5-kDa membrane and centrifuged at 3500× g for 10 min. The filtrates were used to determine Fe concentration from digested unbound Fe(III) complexes by using ICP-MS.

[3] = Kinetic inertness / dissociation monitored by UV-Vis absorbance; type: physicochemical; conditions: 100 mM HCl, 37 °C
Procedure: The complexes have electronic absorbance bands at 325 nm and 330 nm with extinction coefficients ranging from 1570 M^−1∙cm^−1 to 3800 M^−1∙cm^−1 (Figures S16–S21, Table S2, Supplementary Materials). These absorbance peaks were monitored to study the dissociation of the complexes in 100 mM HCl acid solution, or in solutions containing 25 mM hydrogen carbonate and 0.40 mM hydrogen phosphate at 37 °C. […] In acidic solution (100 mM HCl), the dissociation of Fe(L1)(OH2) was estimated as 18.1% over 24 h and 53.6% over 72 h based on absorbance changes. For comparison, the dissociation of the Fe(L2) complex in acidic solution (100 mM HCl) was 7.9% over 48 h, and the dissociation of Fe(L3)(H2O) was 14% over 24 h and 38% over 72 h.
Absorbance of Fe(III) complexes was measured from 200–800 nm over a period of 48 and 72 h. A Peltier temperature controller was used to keep the temperature at 37 °C. The sample solutions contained 0.200 mM Fe(III) complex. Solutions for kinetic inertness experiments contained 25.0 mM NaHCO3, […] Na2HPO4, and 10.0 mM HEPES buffer (pH 7.4). Acidic solutions for the kinetic inertness experiments contained 0.10 M HCl. For each of these experiments, extinction coefficients were determined by using by using the Beer–Lambert law as given in Table S2 (Supplementary Materials).

[4] = test system: Balb/c mice; test: Dynamic T1-weighted MRI in mice after tail vein injection (4.7 T); type: in vivo
Description: The two new Fe(III) complexes, Fe(L1)(OH2) and […], and the Gd(III) agent, Gd(DOTA), were studied in Balb/c mice on a small animal 4.7-T MRI scanner upon tail vein injection of the agent (Figure S24, Supplementary Materials). […] Biodistribution and pharmacokinetic clearance of the complexes in mice were monitored by using dynamic MRI.
In vivo imaging studies with the Fe(III) complexes were studied on at 4.7 T Bruker preclinical MRI in mice (BABC/cJ, Jackson Laboratory) in accordance with approved Institutional Animal Care and Use Committee (IACUC) protocols. The samples with a concentration of 0.050, 0.100, and 0.200 mmol [Fe]/kg. The Fe(III) complex stock solutions were adjusted to pH 7.2 by addition of meglumine and were injected intravenously via tail vein. MR data were recorded continuously for up to 1 h. Distribution studies and clearance kinetics were studied by using MR data acquired over several time points for up to 1 h, and additionally at 4 h and 24 h. For comparison, The Food and Drug Administration (FDA)-approved MRI contrast agent gadopentetate dimeglumine (Gd(DTPA), Magnevist®) and gadoterate meglumine (Gd(DOTA), Dotarem®) were injected at 50.0 μmol [Gd]/kg into separate group of mice and imaged as above.

[5] = pH-potentiometric titrations of the intact Fe(III) complexes; type: physicochemical; conditions: potentiometric titration, 25 °C, 0.10 M NaCl, 1–2 mM meglumine
Description: The pH-potentiometric titrations of the intact Fe(III) complexes were studied to determine the equilibrium constants for deprotonation of ligand groups such as the hydroxyl pendants or water ligand. […] For Fe(L1)(OH2) and Fe(L3)(OH2), either an alcohol pendant group or water ligand might ionize but, for Fe(L2), we only consider alcohol pendant groups. […] Ionization of the water ligand at near neutral pH cannot be ruled out, but is not considered to be likely based on prior studies [19]. […] The group that produces this ionization is not likely to be a bound water or hydroxyl group given that the coordination sphere is very similar to that of Fe(L3)(OH2). […] A weak hydrogen bonding interaction to a hydroxyl pendent or bound water might produce such an environment.
All solutions were prepared by using carbonate-free water.
Fe(L1)(OH2): The solution contained 0.527 mM Fe(III) complex added as the chloride salt, 1.00 mM meglumine, 0.100 M NaCl, and 3.72 mM HCl to decrease the pH of the solution to pH 3 in total volume of 20.00 mL. The solution was titrated with a 98.83 mM NaOH solution. Then, 5.00 µL aliquots of the NaOH solution were added over 60 s with an interval of 300 s using a Nexus 3000 High Flow Syringe Pump from Chemyx Inc (Stafford, TX, USA) equipped with a 10-mL Hamilton gastight syringe.
Fe(L2): The solution contained 0.75 mM Fe(III) complex added as the chloride salt, 2.00 mM meglumine, 0.100 M NaCl, and 6.00 mM HCl to decrease the pH of the solution to pH 3 in total volume of 25.00 mL. The solution was titrated with a 94.86 mM NaOH solution. Then, 5.00 µL aliquots of the NaOH solution were added over 60 s with an interval of 300 s using a Nexus 3000 High Flow Syringe Pump from Chemyx Inc (Stafford, TX) equipped with a 10-mL Hamilton gastight syringe.
In all fits of the data, meglumime was used as a third reagent, and the equilibrium equation corresponding to its ionization was added to the model data fit as determined from separate titrations. The titration was completed under Ar(g) at 25 °C. The titrations were monitored from pH 3 to pH 11. Equilibrium constants for all complexes were determined by fitting the data using [sequence] 2013 Version 6.0.1. Speciation diagrams were plotted by utilizing HySS Version 4.0.31.

T1 sequence (P02768 25-609): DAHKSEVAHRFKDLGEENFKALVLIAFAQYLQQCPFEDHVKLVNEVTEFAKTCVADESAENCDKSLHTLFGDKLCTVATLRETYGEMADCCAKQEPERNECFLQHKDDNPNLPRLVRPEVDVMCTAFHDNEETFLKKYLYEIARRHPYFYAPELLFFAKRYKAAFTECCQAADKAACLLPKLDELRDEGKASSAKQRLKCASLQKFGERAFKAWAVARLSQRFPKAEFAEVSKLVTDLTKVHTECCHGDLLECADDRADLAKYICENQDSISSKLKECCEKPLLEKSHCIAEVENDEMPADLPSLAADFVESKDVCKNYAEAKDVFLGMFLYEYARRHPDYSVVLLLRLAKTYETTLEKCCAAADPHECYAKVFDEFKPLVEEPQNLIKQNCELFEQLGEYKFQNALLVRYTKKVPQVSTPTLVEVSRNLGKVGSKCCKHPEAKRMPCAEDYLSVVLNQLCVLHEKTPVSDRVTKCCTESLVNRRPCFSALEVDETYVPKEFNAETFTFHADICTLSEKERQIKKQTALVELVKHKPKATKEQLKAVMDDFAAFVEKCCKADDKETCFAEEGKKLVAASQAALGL

Question: Which “r1 4.7 T” value [1] does the source give for `C[C@H]([O-])CN1CCN(CCCS(=O)(=O)[O-])CCN(C[C@H](C)O)CC1.O.[Fe+3]` [Fe(L1)(OH2)] here?
Answer: 2.0 mM⁻¹ s⁻¹ and 2.0 ± 0.19 mM⁻¹ s⁻¹

Question: What about the “r2 4.7 T” value [1] of the same molecule?
Answer: 6.1 ± 0.77 mM⁻¹ s⁻¹

Question: What about the “r1 9.4 T” value [1] of the same molecule?
Answer: 2.0 ± 0.2 mM⁻¹ s⁻¹

Question: And the “r1 in HSA 4.7 T” value [1]?
Answer: 2.5 ± 0.63 mM⁻¹ s⁻¹

Question: What about the “r2 in HSA 4.7 T” value [1] of the same molecule?
Answer: 5.5 ± 0.98 mM⁻¹ s⁻¹

Question: What about the “HSA Binding (%)” value [2] of the same molecule?
Answer: 37% and 36.8 ± 0.2%

Question: And the “dissociation in acidic solution” value ([3]; over 24 h, estimated from absorbance changes)?
Answer: 18.1%

Question: And the “dissociation in acidic solution” value ([3]; over 72 h, estimated from absorbance changes)?
Answer: 53.6%

Question: And the “kidney contrast enhancement in T1-weighted images” value ([4]; 0.20 mmol/kg, 5 min post-injection)?
Answer: Enhancement of kidney contrast was observed

Question: What about the clearance pathway ([4]; Balb/c mice, dynamic MRI) of the same molecule?
Answer: cleared predominately by the renal system

Question: And the tolerability in mice ([4]; mouse, in vivo)?
Answer: tolerated well

Question: And the “Log K1 (pKa2)” value [5]?
Answer: 7.55 ± 0.08

Question: What about the “Log K2 (pKa1)” value [5] of the same molecule?
Answer: 3.39 ± 0.17

Question: What does the source list for `C[C@H]([O-])CN1CCN(C[C@H](C)O)CCN(C[C@H](C)O)CC1.[Fe+3]` [Fe(L2)]?
Answer: r1 4.7 T [1]: 0.97 ± 0.12 mM⁻¹ s⁻¹; r2 4.7 T [1]: 1.8 ± 0.47 mM⁻¹ s⁻¹; r1 9.4 T [1]: 1.4 ± 0.08 mM⁻¹ s⁻¹; r1 in HSA 4.7 T [1]: 1.2 ± 0.22 mM⁻¹ s⁻¹; r2 in HSA 4.7 T [1]: 2.3 ± 1.1 mM⁻¹ s⁻¹; HSA Binding (%) [2]: 11% and 11.2 ± 2.8%; dissociation in acidic solution ([3]; over 48 h): 7.9%; T1-weighted contrast enhancement compared with other agents ([4]; healthy mouse, 0.05 mmol/kg, kidneys/blood, up to 45 min): slightly more enhanced contrast in kidneys and blood than Fe(L1)(OH2) or the Gd(III) complexes; Log K1 (pKa2) [5]: 11.78 ± 0.11; Log K2 (pKa1) [5]: 6.57 ± 0.05
